Tests used:
[1] = biological target: T1, human GluR4B (Homo sapiens, UniProt P48058); assay: Fluo3-AM fluorescence test of glutamate-induced response in HEK cells, relative to 100 μM cyclothiazide; format: cell-based; conditions: human GluR4B receptor expressed in HEK 293 cells
T1 construct: expressed in transfected cells; host or cells: HEK (HEK 293)
Experimental: 96 well plates containing confluent monolayers of HEK cells stably expressing human GluR4B (obtained as described in European Patent Application Publication Number EP-A1–583917) were prepared. The tissue culture medium in the wells was then discarded, and the wells were each washed once with 200 μl of 5NaCa buffer (glucose, 10 mM, sodium chloride, 138 mM, magnesium chloride, 1 mM, potassium chloride, 5 mM, calcium chloride, 5 mM, N-[2-hydroxyethyl]-piperazine-N-[2-ethanesulfonic acid], 10 mM, to pH 7.1 to 7.3). The plates were then incubated for 60 minutes in the dark with 20 μM Fluo3-AM dye (obtained from Molecular Probes Inc, Eugene, Oreg.) in 5 NaCa buffer in each well. After the incubation, each well was washed once with 100 μl 5NaCa buffer, 200 μl of 5NaCa buffer was added and the plates were incubated for 30 minutes. […]
Each test was then performed as follows. […] A first reading was then taken using a FLUOROSKAN II fluorimeter (Obtained from Labsystems, Needham Heights, Mass., USA, a Division of Life Sciences International Plc). […] A second reading was then taken using the fluorimeter. The plate was then left in the fluorimeter for 5 minutes, and a third reading was taken. 15 μl of 400 μM glutamate solution was then added to each well (final glutamate concentration 100 μM), and a fourth reading was taken immediately. Approximately three minutes later, a fifth reading was taken. […]

T1 sequence (P48058 21-902): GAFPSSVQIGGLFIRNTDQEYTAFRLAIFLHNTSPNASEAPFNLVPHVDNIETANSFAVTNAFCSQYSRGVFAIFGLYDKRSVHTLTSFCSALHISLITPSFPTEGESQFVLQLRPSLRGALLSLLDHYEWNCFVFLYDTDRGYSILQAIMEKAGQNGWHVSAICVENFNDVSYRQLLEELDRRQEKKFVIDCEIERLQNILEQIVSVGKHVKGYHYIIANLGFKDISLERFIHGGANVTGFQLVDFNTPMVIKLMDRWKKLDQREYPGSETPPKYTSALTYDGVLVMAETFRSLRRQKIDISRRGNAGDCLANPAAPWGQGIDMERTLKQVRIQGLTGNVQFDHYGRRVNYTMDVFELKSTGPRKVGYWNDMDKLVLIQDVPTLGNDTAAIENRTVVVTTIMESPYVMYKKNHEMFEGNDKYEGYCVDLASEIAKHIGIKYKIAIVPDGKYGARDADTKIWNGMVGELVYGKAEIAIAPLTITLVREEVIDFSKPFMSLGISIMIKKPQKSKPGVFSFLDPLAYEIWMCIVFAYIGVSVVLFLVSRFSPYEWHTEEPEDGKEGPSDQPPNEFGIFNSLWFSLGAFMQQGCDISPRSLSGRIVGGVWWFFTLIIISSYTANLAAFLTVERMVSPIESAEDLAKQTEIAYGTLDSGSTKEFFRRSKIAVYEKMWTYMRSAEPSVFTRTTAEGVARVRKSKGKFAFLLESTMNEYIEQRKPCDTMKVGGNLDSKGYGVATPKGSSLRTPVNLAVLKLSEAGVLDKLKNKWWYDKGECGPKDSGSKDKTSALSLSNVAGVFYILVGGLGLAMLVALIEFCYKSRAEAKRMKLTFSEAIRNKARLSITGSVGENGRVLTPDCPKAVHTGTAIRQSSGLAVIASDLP

| melting point | SMILES | potentiation of agonist-induced excitability of human GluR4B receptor [1] |
| --- | --- | --- |
| 82 to 84 °C | CC(C)(C)c1ccc(C2(CNS(=O)(=O)C(F)(F)F)CC2)cc1 |  |
| 87 to 89.5 °C | CC(C)S(=O)(=O)NCC1(c2ccc(C(C)(C)C)cc2)CC1 |  |
|  | NS(=O)(=O)c1cc2c(cc1Cl)NC(C1CC3C=CC1C3)NS2(=O)=O (stereo not drawn) [cyclothiazide] | potentiate |

Reference: patent publication US7135487B2, “Sulphonamide derivatives” (Eli Lilly and Company, priority 1997, dated 2006)
